The text below walks through data of patent publication US12201691B2, “Core-shell structure, preparation, medicine for external application, tape agent and cosmetic product” (SEKISUI CHEMICAL CO., LTD., priority 2017, dated 2025).

Where a name gives a salt, the structure may show the parent alone.

One data set relates to dorsal skin of a rabbit. Kind of data set: Primary irritation index of active ingredients (4% by weight in Plastibase). The conditions noted are these: active ingredient 4% by weight in Plastibase, Draize scores at 24 and 72 hours. The data set is classed as in vivo. The procedure:
Low skin irritation means having a primary irritation index (P.I.I.) of 5 or less. Note that, the primary irritation index can be measured by a method described below.
An active ingredient is added to an ointment base Plastibase (manufactured by Taisho Pharmaceutical Co., Ltd.) such that its content reaches 4% by weight based on the total weight, mixed, and dispersed therein to produce a formulation.
The dorsal skin of a rabbit is shaved with an electric clipper (with an electric shaver as required). Healthy skin at two points on either side of the dorsal mid-line of the dorsal skin, that is, at four points in total, is used as administration sites. Next, the formulation prepared is taken with a spatula and spread evenly on pieces of lint each having a size of 2 cm×2 cm, and the pieces are attached onto the administration sites. The lint pieces are fixed by covering with a non-woven adhesive bandage (manufactured by Nichiban Co., Ltd., MESHPORE, No. 50). Then, the administration sites are altogether wrapped with gauze and then sealed by covering with an adhesive cloth elastic bandage (manufactured by Nichiban Co., Ltd., ELASTPORE, No. 100).
Specifically, individual skin reaction scores (sum of erythema and eschar formation and edema formation) at the administration sites of each rabbit are calculated for each administration specimen at each observation time. […] Specifically, the following equations (1) and (2) are used for the calculation.

A short description of data set [1]: Octanol/water partition coefficient. The data set is classed as physicochemical. The conditions noted are these: Log10(concentration in octanol phase/concentration in aqueous phase), aqueous buffer of pH 7. The procedure:
Note that, in the present invention, the octanol/water partition coefficient is determined based on active ingredient concentration of each phase obtained by adding an active ingredient to a flask containing octanol and an aqueous buffer of pH 7, shaking the flask, and then determining the concentration. Specifically, the partition coefficient can be determined by calculation using an equation: Octanol/water partition coefficient=Log10(concentration in an octanol phase/concentration in an aqueous phase).

As for `CC12CC3CC(C)(C1)CC(N)(C3)C2` [memantine hydrochloride], the “primary irritation index (P.I.I.)” value in the data set on dorsal skin of a rabbit was found to be 2.5.
`CCN(C)C(=O)Oc1cccc([C@H](C)N(C)C)c1` [rivastigmine]: in the data set on dorsal skin of a rabbit, the “primary irritation index (P.I.I.)” value was determined as 0.5.
Consider `CCCc1nc(C)c2c(=O)[nH]c(-c3cc(S(=O)(=O)N4CCN(CC)CC4)ccc3OCC)nn12` [vardenafil hydrochloride hydrate], for which the octanol/water partition coefficient in data set [1] is listed as 0.0.
One may read the logD as lipophilicity at a set pH, counting ionised and neutral species. Low values mean a more hydrophilic compound, high ones a more lipophilic compound. Turning to `CC(C(=O)O)c1ccc(CC2CCCC2=O)cc1` (stereo not drawn) [loxoprofen sodium dihydrate], the logD in data set [1] is 0.8. The “primary irritation index (P.I.I.)” value in the data set with dorsal skin of a rabbit stood at 0.3.
For the compound `NC(=O)CC[C@@H]1NC(=O)[C@H](Cc2ccccc2)NC(=O)[C@H](Cc2ccc(O)cc2)NC(=O)[C@@H](N)CSSC[C@@H](C(=O)N2CCC[C@H]2C(=O)N[C@@H](CCCN=C(N)N)C(=O)NCC(N)=O)NC(=O)[C@H](CC(N)=O)NC1=O` [[Arg-8]-Vasopressin], in data set [1], the log distribution coefficient (logD) is -4.8.
